For 26 molecules, IC50 results are on record in patent US20230159510A1, “NOVEL PRMT5 INHIBITORS” (AMGEN INC., priority 2020, published 2023).

Some results are limits rather than exact numbers.

One assay concerns HCT116 MTAP null cells. The experiment in a line: HCT116 proliferation assay, MTAP null cells (CellTiter-Glo, 6 days). It counts as cell-based. Particulars: HCT116-MTAP null, 144 h, read-out: Protif_ HCT116-MTAP null IC50. Here is the method: (§1) HCT116 MTAP null and WT cells were seeded in 96-well tissue culture plates in RPMI 1640 media + 10% fetal bovine serum. Plates were incubated overnight at 37° C. and 5% CO2. Cells were then treated with a 8- or 9-point serial dilution of compound, using a top concentration of 1 or 10 µM, 1:3 serial dilution steps and, a DMSO-only control. Cells were incubated in the presence of drug for 6 days. Effects on cell viability were measured with the CellTiter-Glo® Luminescent Cell Viability Assay (Promega) per manufacturer’s recommendation. Assay plates were read on an EnVision™ Multilabel Reader using the Ultra-Sensitive luminescence module.
On the technique in general: In ATP-based viability assays light output follows the ATP content of the culture.

Another assay deals with HCT116 WT cells. Put plainly: HCT116 proliferation assay, WT cells (CellTiter-Glo, 6 days). It counts as cell-based. To be noted: Homo sapiens, HCT-116, 144 h, read-out: Prolif_HCT116-WT IC50. Here is the method:
as §1

A word on the IC50: it is the concentration at which inhibition is half-maximal. Consider `Cc1cc2cc(C(=O)N(Cc3ccc4[nH]c(=O)[nH]c4c3)Cc3ccnc4[nH]ccc34)ccc2nc1N` [Example 589, N-((1H-pyrrolo[2,3-b]pyridin-4-yl)methyl)-2-amino-3-methyl-N-((2-oxo-2,3-dihydro-1H-benzo [d]imidazol-5-yl)methyl)quinoline-6-carboxamide], for which the half-maximal inhibitory concentration (IC50) was 549 nM in the assay on HCT116 MTAP null cells and over 1000 nM in the assay on HCT116 WT cells.

For the molecule `Cc1cc2cc(C(=O)N(Cc3ccc(C(F)(F)F)cn3)CC(O)C(F)(F)F)ccc2nc1N` (stereo not shown) [Example 592, 2-amino-3-methyl-N-(3,3,3-trifluoro-2-hydroxypropyl)-N-((5-(trifluoromethyl)pyridin-2-yl)methyl)quinoline-6-carboxamide], the 50% inhibitory concentration (IC50) was 407 nM with HCT116 MTAP null cells and over 1000 nM in the assay on HCT116 WT cells.

`Cc1cc2cc(C(=O)N(Cc3ccc(C(F)(F)F)cn3)C(C)C3CCOCC3)ccc2nc1N` (stereo not shown) [Example 675, 2-amino-3-methyl-N-(1-tetrahydropyran-4-ylethyl)-N-[[5-(trifluoromethyl)-2-pyridyl]methyl] quinoline-6-carboxamide]: the IC50 was 232 nM with HCT116 MTAP null cells and over 1000 nM in the assay with HCT116 WT cells.

Consider `Cc1cc2cc(C(=O)N(Cc3ccccc3F)Cc3c[nH]c4cccnc34)ccc2nc1N` [Example 711, 2-amino-N-[(2-fluorophenyl)methy1] -3-methyl-N-(1H-pyrrolo[3,2-b]pyridin-3-ylmethyl)quinoline-6-carboxamide], for which the IC50 with HCT116 MTAP null cells amounted to 279 nM; in the assay on HCT116 WT cells, 9780 nM.

Take `Cc1cc2cc(C(=O)N(Cc3ccc(C#N)nn3)[C@H](C)c3ncccc3F)ccc2nc1N` [Example 728, 2-amino-N-((6-cyano-3-pyridazinyl)methyl)-N-((1R)-1-(3-fluoro-2-pyridinyl)ethyl)-3-methyl-6-quinolinecarboxamide]: the 50% inhibitory concentration (IC50) came to 264 nM with HCT116 MTAP null cells and 6810 nM in the assay on HCT116 WT cells.

For `CCOc1ccc(CN(C(=O)c2ccc3nc(N)c(Br)cc3c2)[C@H](C)c2ncccn2)nn1` [Example 729, 2-amino-3-bromo-N-((6-ethoxy-3-pyridazinyl)methyl)-N-((1R)-1-(2-pyrimidinyl)ethyl)-6-quinolinecarboxamide], the IC50 worked out at 114 nM in the assay with HCT116 MTAP null cells and 6900 nM in the assay with HCT116 WT cells.

Consider `COC[C@H](C1CC1)N(Cc1ccc(N2CCOCC2)nn1)C(=O)c1ccc2nc(N)c(Br)cc2c1` [Example 732, 2-amino-3-bromo-N-((1S)-1-cyclopropyl-2-methoxyethyl)-N-((6-(4-morpholinyl)-3-pyridazinyl)methyl)-6-quinolinecarboxamide], for which the values for the IC50 in the assay with HCT116 MTAP null cells and in the assay on HCT116 WT cells were 231 nM and over 10000 nM, respectively.

Regarding `COC[C@@H](C)N(Cc1ccc(C#N)cn1)C(=O)c1ccc2nc(N)c(Br)cc2c1` [Example 733, 2-amino-3-bromo-N-((5-cyano-2-pyridinyl)methyl)-N-((2R)-1-methoxy-2-propanyl)-6-quinolinecarboxamide], the results for the half-inhibitory concentration (IC50) with HCT116 MTAP null cells and in the assay with HCT116 WT cells were 434 nM and over 10000 nM, respectively.

Regarding `Cc1cc2cc(C(=O)N(CCOC(F)(F)F)Cc3ccc(C(F)(F)F)cn3)ccc2nc1N` [Example 734, 2-amino-3-methyl-N-(2-(trifluoromethoxy)ethyl)-N-((5-(trifluoromethyl)-2-pyridinyl)methyl)-6-quinolinecarboxamide], the IC50 in the assay with HCT116 MTAP null cells is 994 nM; with HCT116 WT cells, over 10000 nM.

Consider `COc1ccc(CN(C(=O)c2cnc3nc(N)c(Br)cc3c2)[C@H](C)c2ncccc2F)nn1` [Example 735, 7-amino-6-bromo-N-((1R)-1-(3-fluoro-2-pyridinyl)ethyl)-N-((6-methoxy-3-pyridazinyl)methyl)-1,8-naphthyridine-3-carboxamide], for which the IC50 in the assay on HCT116 MTAP null cells is 220 nM; in the assay with HCT116 WT cells it was over 10000 nM.

`COc1ccc(CN(C(=O)c2ccc3nc(N)c(Br)cc3c2)[C@H](C)c2ncccc2F)nn1` [Example 736, 2-amino-3-bromo-N-((1R)-1-(3-fluoro-2-pyridinyl)ethyl)-N-((6-methoxy-3-pyridazinyl)methyl)-6-quinolinecarboxamide]: the figures for the IC50 in the assay on HCT116 MTAP null cells and in the assay on HCT116 WT cells were 151 nM and 6960 nM, respectively.

Consider `C[C@H](c1ncccc1F)N(Cc1ccc(C(F)(F)F)nn1)C(=O)c1ccc2nc(N)c(Br)cc2c1` [Example 737, 2-amino-3-bromo-N-((1R)-1-(3-fluoro-2-pyridinyl)ethyl)-N-((6-(trifluoromethyl)-3-pyridazinyl)methyl)-6-quinolinecarboxamide], for which the IC50 was 148 nM in the assay on HCT116 MTAP null cells and 6800 nM in the assay on HCT116 WT cells.

Turning to `N#Cc1ccc(CN(C(=O)c2ccc3nc(N)c(Br)cc3c2)[C@@H](c2ncccn2)C2CC2)nc1` [Example 738, 2-amino-3-bromo-N-((5-cyano-2-pyridinyl)methyl)-N-((R)-cyclopropyl(2-pyrimidinyl)methyl)-6-quinolinecarboxamide], the IC50 in the assay on HCT116 MTAP null cells is 173 nM; in the assay on HCT116 WT cells it was 4300 nM.

With `C[C@H](c1ncccc1F)N(Cc1ccc(Br)nn1)C(=O)c1ccc2nc(N)c(Cl)cc2c1` [Example 739, 2-amino-N-((6-bromo-3-pyridazinyl)methyl)-3-chloro-N-((1R)-1-(3-fluoro-2-pyridinyl)ethyl)-6-quinolinecarboxamide], the IC50 is 355 nM in the assay on HCT116 MTAP null cells and over 10000 nM in the assay on HCT116 WT cells.

With `C[C@H](c1ncccn1)N(Cc1ccc(Br)nn1)C(=O)c1ccc2nc(N)c(Br)cc2c1` [Example 740, (R)-2-amino-3-bromo-N-((6-bromopyridazin-3-yl)methyl)-N-(1-(pyrimidin-2-yl)ethyl)quinoline-6-carboxamide], the figures for the IC50 in the assay with HCT116 MTAP null cells and in the assay with HCT116 WT cells were 80 nM and 4400 nM, respectively.

Regarding `Cc1cc2cc(C(=O)N(Cc3cc4c(cn3)OCCC4)C(C)c3ncccn3)ccc2nc1N` (stereo not shown) [Example 741, 2-amino-N-((3,4-dihydro-2H-pyrano[2,3-c]pyridin-6-yl)methyl)-3-methyl-N-(1-(pyrimidin-2-yl)ethyl)quinoline-6-carboxamide], the 50% inhibitory concentration (IC50) with HCT116 MTAP null cells is 270 nM; with HCT116 WT cells, 8360 nM.

As to `Cc1cc2cc(C(=O)N(Cc3ccc(OC(F)F)nn3)C(C)c3ncccn3)ccc2nc1N` (stereo not shown) [Example 742, 2-amino-N-((6-(difluoromethoxy)pyridazin-3-yl)methyl)-3-methyl-N-(1-(pyrimidin-2-yl)ethyl)quinoline-6-carboxamide], the IC50 with HCT116 MTAP null cells was 40 nM; in the assay on HCT116 WT cells, 1170 nM.

Consider `Cc1c(Br)c(N)nc2ncc(C(=O)N(Cc3ccc(C(F)(F)F)cn3)[C@H](C)c3ncccn3)cc12` [Example 743, (R)-7-amino-6-bromo-5-methyl-N-(1-(pyrimidin-2-yl)ethyl)-N-((5-(trifluoromethyl)pyridin-2-yl)methyl)-1,8-naphthyridine-3-carboxamide], for which the IC50 in the assay on HCT116 MTAP null cells is 54 nM; in the assay on HCT116 WT cells it was 694 nM.

As to `Cc1c(Br)c(N)nc2ncc(C(=O)N(Cc3ccc(C#N)cn3)[C@H](C)c3ncccn3)cc12` [Example 744, (R)-7-amino-6-bromo-N-((5-cyanopyridin-2-yl)methyl)-5-methyl-N-(1-(pyrimidin-2-y 1)ethy 1)-1 ,8-naphthyridine-3-carboxamide], the concentration for half-maximal inhibition (IC50) with HCT116 MTAP null cells turned out to be 188 nM; in the assay on HCT116 WT cells, 4120 nM.

Turning to `C[C@H](c1ncccn1)N(Cc1cc(Cl)c(C#N)cn1)C(=O)c1ccc2nc(N)c(Br)cc2c1` [Example 745, (R)-2-amino-3-bromo-N-((4-chloro-5-cyanopyridin-2-yl)methyl)-N-(1-(pyrimidin-2-yl)ethyl)quinoline-6-carboxamide], the half-inhibitory concentration (IC50) with HCT116 MTAP null cells was found to be 223 nM; with HCT116 WT cells, 1240 nM.

On to `C[C@H](c1ncccn1)N(Cc1ccc(OC(F)F)nn1)C(=O)c1ccc2nc(N)c(Br)cc2c1` [Example 746, (R)-2-amino-3-bromo-N-((6-(difluoromethoxy)pyridazin-3-yl)methyl)-N-(1-(pyrimidin-2-yl)ethyl)quinoline-6-carboxamide], for which the results for the IC50 in the assay with HCT116 MTAP null cells and in the assay on HCT116 WT cells were 139 nM and 7260 nM, respectively.

In the case of `Cc1cc2cc(C(=O)N(Cc3ccc(C#N)c(C)n3)[C@H](C)c3ncccn3)ccc2nc1N` [Example 750, 2-amino-N-((5-cyano-6-methyl-2-pyridinyl)methyl)-3-methyl-N-((1R)-1-(2-pyrimidinyl)ethyl)-6-quinolinecarboxamide], the figures for the IC50 in the assay on HCT116 MTAP null cells and in the assay with HCT116 WT cells were 177 nM and 3140 nM, respectively.

For `CO[C@@H]1Cc2ccccc2[C@H]1N(Cc1ccc(C(F)(F)F)cn1)C(=O)c1ccc2nc(N)c(C)cc2c1` [Example 751, 2-amino-N-((1R,2R)-2-methoxy-2,3-dihydro-1H-inden-1-yl)-3-methyl-N-((5-(trifluoromethyl)-2-pyridinyl)methyl)-6-quinolinecarboxamide], the half-maximal inhibitory concentration (IC50) in the assay with HCT116 MTAP null cells came out at 144 nM; in the assay on HCT116 WT cells, 1740 nM.

In the case of `CO[C@H]1Cc2ccccc2[C@@H]1N(Cc1ccc(C(F)(F)F)cn1)C(=O)c1ccc2nc(N)c(C)cc2c1` [Example 752, 2-amino-N-((1S,2S)-2-methoxy-2,3-dihydro-1H-inden-1-yl)-3-methyl-N-((5-(trifluoromethyl)-2-pyridinyl)methyl)-6-quinolinecarboxamide], the concentration for half-maximal inhibition (IC50) in the assay on HCT116 MTAP null cells came out at 119 nM; with HCT116 WT cells, 1740 nM.

Consider `CC(=O)c1ccc(CN(C(=O)c2ccc3nc(N)c(C)cc3c2)[C@H](C)c2ncccn2)nc1` [Example 754, N-((5-acetyl-2-pyridinyl)methyl)-2-amino-3-methyl-N-((1R)-1-(2-pyrimidinyl)ethyl)-6-quinolinecarboxamide], for which the IC50 came out at 130 nM in the assay with HCT116 MTAP null cells and 4110 nM in the assay with HCT116 WT cells.

On to `COc1ccc(CN(C(=O)c2ccc3nc(N)c(C)cc3c2)C(C)c2ncn(C)n2)nn1` (stereo not shown) [Example 756, 2-amino-N-((6-methoxypyridazin-3-yl)methyl)-3-methyl-N-(1-(1-methyl-1H-1,2,4-triazol-3-yl)ethyl)quinoline-6-carboxamide], for which the results for the IC50 in the assay on HCT116 MTAP null cells and with HCT116 WT cells were 228 nM and 5950 nM, respectively.
